Experimental data as given in patent US8686003B2, “Tissue non-specific alkaline phosphatase inhibitors and uses thereof for treating vascular calcification” (Sanford-Burnham Medical Research Institute, priority 2007, dated 2014).
“Also recorded” adds a separate entry of the source. Read-outs that look alike come from different tables or passages of the source.

Tests used:
[1] = system: endogenous pyrophosphatase activity in aortic rat rings; assay: PPi hydrolysis by whole aortas ex vivo; settings: 30 μM; for PPi hydrolysis / % Inhibition: aortic rat rings ex vivo; for % Inhibition: inhibition of PPi hydrolysis
Experimental: Rats were sacrificed and aortas perfused with Hanks salt solution to remove blood. The aortas were then removed and, after the adventitia was dissected away, were cut into rings approximately 2 mm in length. Four rings were placed in 1 ml of DMEM without serum containing the compounds to be tested. After 90 min at 37° C., sodium PPi (final concentration 1 μM) and [^32P]Pi (final concentration 1 μCurie/ml) were added and 6 samples were removed over 4 hours. Pi was separated from PPi by adding 800 μl of 0.028 M ammonium molybdate in 0.75 M H2SO4 to the samples and extracting with 1600 μl of isobutanol and petroleum ether (4:1). ^32P was counted in the organic phase by Cerenkov radiation. Hydrolysis of PPi was linear over 4 hours and the rate was determined by linear regression.
Furthermore, to measure the degree of pyrophosphatase inhibition by the new TNAP inhibitors, an ex vivo organ culture system in whole aortas was used. For this analysis, rat rather than mouse aortas were selected, as they are larger and easier to dissect.

human TNAP = target: T1, human TNAP (Homo sapiens, UniProt P05186); assay: Enzyme kinetic experiments, Ki and mechanism of TNAP inhibition; format: biochemical; settings: for Ki: pNPP substrate
T1 construct: made in house; host or cells: COS-1 cells, transient expression; dialyzed serum-free conditioned medium
T1 sequence (P05186 18-502 limits assumed): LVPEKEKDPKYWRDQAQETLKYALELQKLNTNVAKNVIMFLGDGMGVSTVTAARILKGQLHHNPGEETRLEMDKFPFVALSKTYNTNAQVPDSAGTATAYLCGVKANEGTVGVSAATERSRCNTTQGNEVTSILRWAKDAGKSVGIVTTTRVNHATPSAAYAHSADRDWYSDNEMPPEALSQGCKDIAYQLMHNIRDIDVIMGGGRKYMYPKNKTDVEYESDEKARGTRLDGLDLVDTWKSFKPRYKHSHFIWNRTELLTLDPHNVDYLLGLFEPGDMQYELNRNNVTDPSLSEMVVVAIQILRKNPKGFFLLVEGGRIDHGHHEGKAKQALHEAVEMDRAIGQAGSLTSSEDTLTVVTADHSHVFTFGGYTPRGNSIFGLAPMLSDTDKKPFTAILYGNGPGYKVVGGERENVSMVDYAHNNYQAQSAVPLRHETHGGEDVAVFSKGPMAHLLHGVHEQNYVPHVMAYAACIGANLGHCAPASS
Experimental: Expression plasmids containing a secreted epitope-tagged TNAP, PLAP and IAP were transfected into COS-1 cells for transient expression using a standard electroporation method. Medium was replaced to Opti-MEM 24 hours later, and the serum free media containing secreted proteins were collected 60 hours after electroporation. Conditioned medium was dialyzed against TBS containing 1 mM MgCl2 ad 20 μM ZnCl2 (to remove phosphate) and filtrated with a 2 μm cellulose acetate filter.
[…] TNAP, PLAP and IAP activities were adjusted to an approximate ΔA405 nm, equivalent to 1, measured after 30 min. Residual AP activity in the presence of inhibitors was expressed as percentage of the control activity. To investigate the mechanism of inhibition, double reciprocal plots of enzyme activity (expressed as mA405 nm min^−1) vs. substrate concentration were constructed, in the presence of various concentrations of added inhibitors (0-30 μM). The y-axis intercepts of the 1/v vs. 1/[S] plots, were then plotted vs. [I] to graphically extract Ki values as the x-intercept in this plot. […] Inhibitors were further tested and sorted based on their kinetic properties at pH 7.4 using PPi, the relevant natural substrate of TNAP. […] Amounts of released phosphate were measured using the Biomol Green Reagent (Biomol Research Laboratories, Inc., Plymouth Meeting, Pa.).

Enpp1−/− VSMCs = assay: In vitro calcification (mineralization) of VSMC cultures; format: cell-based, mouse; settings: Enpp1−/− VSMC culture
Experimental: Vascular SMCs were isolated from explants using a collagenase digestion method and the smooth muscle phenotype was confirmed by RT-PCR analysis for smooth muscle α-actin. One mouse aorta provided on average, 5×10^5 cells. These cells were cultured (in triplicate) at a density of 3×10^4 cells/cm^2 using α-MEM supplemented with β-glycerophosphate (10 mM) and 50 μg/ml ascorbic acid for 3 weeks. To quantify calcium deposited in these cultures, either the o-cresolphthalein complexone method^(31) or the standard Alizarin Red method was used.

[2] = pH 7.5, 1 M Tris-HCl buffer, read-out: Ki (μM) @ pH 7.5
[3] = pH 9.8, 1 M DEA-HCl buffer, read-out: Ki (μM) @ pH 9.8

Row | Ki (human TNAP; [2]) [µM] | Ki (human TNAP; [3]) [µM] | potency at pH 7.5 compared with pH 9.8 (human TNAP) | potency relative to levamisole (human TNAP; Ki at physiological pH) | SMILES | PPi hydrolysis [1] [nmol/g/min] | % Inhibition [1] [%] | suppression of endogenous pyrophosphatase activity (ranking) ([1]; rat whole aortas ex vivo) | effect of competitive inhibitor Pi on potency (human TNAP; pH 7.4, 0.1 mM pNPP, Na2HPO4 0-10 mM) | effect of PPi on degree of inhibition (human TNAP; pH 7.4, 0.1 mM pNPP, pyrophosphate 0-40 mM) | inhibition of mineralization (Enpp1−/− VSMCs)
1 | 6.4 ± 1.6 | 5.6 ± 1.6 | – | – | Cn1cnnc1SC(C(=O)c1ccccc1)c1ccccc1 (centres unmarked) | 0.269 ± 0.032 | 15.9 | – | – | – | –
2 | 33 ± 5.8 | 5.6 ± 0.7 | – | – | O=C(CSc1nnc[nH]1)NCCOc1ccccc1 | 0.249 ± 0.046 | 22.2 | – | – | – | –
3 | 2.8 ± 0.4 | 6.5 ± 1.4 | more potent at pH 7.5 than at pH 9.8 | about 10 fold | Cn1ccnc1Sc1nc(Nc2ccccc2)nc(Nc2ccccc2)n1 [compound 5804079] | 0.192 ± 0.041 | 39.9 | most effective | does not affect the potency; also recorded: not affected by the presence of the competitive inhibitor Pi | does not affect the degree of inhibition; also recorded: not affected by high concentrations of PPi | most inhibitory
4 | – | – | – | – | c1ccc([C@H]2CN3CCSC3=N2)cc1 [levamisole, (6S)-6-phenyl-2,3,5,6-tetrahydro-imidazo[2,1-b][1,3]thiazole, reference compound] | 0.252 ± 0.047 | 21.2 | – | – | – | –
